Results on 6 molecules are retold here after US10851071B2, “M-dihydroxybenzene derivative crystal and salt, and manufacturing method thereof” (Chia Tai Tianqing Pharmaceutical Group Co., Ltd., priority 2016, dated 2020).

Data set [1] in a line: Crystal stability under humidity, heat and grinding. Format: physicochemical. Particulars: RT/92.5% RH 5 and 10 days; 60° C. 5 and 10 days; grinded 10/20/30 min.
The nature of data set [2]: Dynamic vapour sorption (DVS), wet weight gain. Particulars: 25±1° C. and 80±2% RH. Type of data set: physicochemical.
The nature of data set [3]: Rough solubility test of A-type crystal and salts of the compound of formula (I). As to conditions: for solubility: thermodynamic from solid; for Approximate solubility: room temperature.
Experimental: Hydrochloric acid, acetic acid, sodium acetate, sodium chloride, 5% glucose solution, water (buffer is a buffer solution of acetic acid/sodium acetate).
2 mg of a sample was weighed, and dissolved by adding a solvent (10 μL) thereto at room temperature. […] The total amount of the added solvents was up to 2 mL.
Data set [4] relates to BT-474 tumor cells. The experiment in a line: In vivo pharmacodynamic evaluation in BT-474 breast cancer transplanted tumors in nude mice. How it is done: BT-474 tumor cells were subcutaneously inoculated into the right axillary fossa of nude mice at 5×10^6/mouse to form transplanted tumors. When the volume thereof reached 100-200 mm^3, the animals were randomly grouped based on tumor volumes: 6 mice in negative control group; 6 mice in positive control group; and 6 mice in each test group. The mice in the treatment groups were intravenously injected with different concentrations of positive drug Ganetespib (20 mg/kg) and the compound of formula (I) (10 mg/kg and 20 mg/kg) three times a week, and the mice in the negative control group were administrated with equal amount of vehicles at the same time. The length (A) and width (B) of the tumor were measured twice a week by using a vernier caliper, and the tumor volume V=A×B^2/2 was thereby calculated. The calculation of relative tumor volume (RTV) follows: RTV=Vt/V0, wherein Vt was the tumor volume at the end of administration, and V0 was the tumor volume measured before administration to each cage. The pharmacodynamic evaluation index of antitumor activity was the relative tumor proliferation rate T/C (%), and the calculation formula was: TIC (%)=TRTV/CRTV×100%, wherein TRTV: RTV of the treatment group; CRTV: RTV of the negative control group. Therapeutic efficacy evaluation criteria: T/C %>60% was ineffective; T/C %≤60% with P<0.05 after being statistically processed was effective. […]

Data set [5] is described as follows: Tissue distribution in SD rats after tail vein injection (LC/MS/MS). Type of data set: in vivo. How it is done: SD rats were used as test animals, and the drug concentrations in plasma, lung and breast tissues of rats at different times after administrating the compound of formula (I) via the injection in tail vein were measured by using LC/MS/MS method. The tissue distribution of the compound of the present invention in rats was investigated, and pharmacokinetic characteristics thereof were evaluated.
Appropriate amounts of samples were weighed, and Luminespib, Ganetespib and the compound of formula (I) of the present invention were respectively formulated into a clear solution with a concentration of 2.5 mg/mL for intravenous injection, wherein the solvent was consisted of 10% (v/v) of DMSO, 14% (v/v) of polyoxyethylene hydrogenated castor oil 40, and 76% (v/v) of 5% aqueous glucose solution.
9 SD male rats were divided into three groups, three rats per group. The rats were administered intravenously through tail vein at a dose of 1 mg/kg after being normally fed.
Samples of blood, lung and breast tissues were collected from the rats in three groups at 0.5, 6, and 24 hours after administration, respectively. The blood sample was separated by centrifugation at 4° C., 3000 rpm/min for 15 min within half an hour after collection, so as to obtain plasma sample. The resulting plasma sample was deposited in polypropylene tubes and stored at −80° C. for LC/MS/MS analysis. After blood sample was collected, the animals were sacrificed with CO2, and the tissue samples were collected. Each tissue sample was washed twice with cold deionized water and adhered onto filter paper. Each tissue sample was then homogenized several times in MeOH/15 mM PBS (1:2) (5 mL MeOH/15 mM PBS (1:2) per gram of tissue, with dilution coefficient of 6), to ensure the formation of homogeneous phase. The whole process was carried out at a freezing point temperature. The homogenized samples were quickly frozen by using dry ice and stored at −80° C. for bioassay.
The contents of the test compounds in the plasma, lung and breast tissues of the rats after the administration by injection were measured with LC/MS/MS method.

[6] abbreviates: 0.9% NaCl solution, saline or isotonic.
Setting [7] is: 5% glucose solution, saline or isotonic.
Setting [8] is: acetic acid/sodium acetate buffer pH 3.5, pH 3.5, aqueous buffer.
Setting [9] is: acetic acid/sodium acetate buffer pH 4.5, pH 4.5, aqueous buffer.
The mark [10] stands for this setting: acetic acid/sodium acetate buffer pH 5.5, pH 5.5, aqueous buffer.
The mark [11] stands for this setting: acetic acid/sodium acetate buffer pH 6.8, pH 6.8, aqueous buffer.
[12] abbreviates: acetic acid/sodium acetate buffer pH 7.5, pH 7.5, aqueous buffer.
Setting [13] is: rats, injection dose of 1 mg/kg, same dose.

As a reminder, the solubility is the concentration that dissolves in the medium under given conditions. With `CCNC(=O)c1onc(-c2cc(C(C)C)c(O)cc2O)c1-c1ccc2c(c1)CCNC2` [A-type crystal], the crystal transformation entry in data set [1] is on record as “no crystal transformation”. Besides, the “wet weight gain ΔW %” value in data set [2] is listed as “about 0.45%”. The solubility in data set [3] (0.01N HCl, simulated gastric fluid) was 800 to 1000 µg/mL; in data set [3] (0.1N HCl, simulated gastric fluid) it was less than 1000 µg/mL; in data set [3] (setting [6]), less than 1000 µg/mL; in data set [3] (setting [7]), less than 1000 µg/mL; in data set [3] (setting [8]) it was 80000 to 100000 µg/mL; in data set [3] (setting [9]), 30000 to 50000 µg/mL. In addition, the solubility is less than 1000 µg/mL in data set [3] (setting [10]); less than 1000 µg/mL in data set [3] (acetic acid/sodium acetate buffer pH 6.5, pH 6.5, aqueous buffer); less than 1000 µg/mL in data set [3] (setting [11]); less than 1000 µg/mL in data set [3] (setting [12]); less than 1000 µg/mL in data set [3] (water).
In the case of `CCNC(=O)c1onc(-c2cc(C(C)C)c(O)cc2O)c1-c1ccc2c(c1)CCNC2` [Compound of formula (I), 3(2,4dihydroxy-5-isopropylphenyl)-N-ethyl-4(1,2,3,4-tetrahydroisoquinolin-6-yl)isoxazole-5-carboxamide], the “TGI (%)” value in data set [4] (10 mpk iv three times a week, day 35 (administration stopped day 18)) was 120%. The “antitumor effect compared with Ganetespib (in words)” value in data set [4] (10 mpk versus 20 mpk of Ganetespib, BT-474 transplanted mouse model) is recorded as “significantly superior antitumor effect”. In data set [5] (SD rats, 1 mg/kg iv), the Breast tissue exposure was 7.226 µM·h, the Lung exposure was 30.933 µM·h and the Plasma exposure amounted to 0.415 µM·h. In data set [5] (setting [13]), the “concentrations in lung and breast tissues compared with Luminespib and Ganetespib (in words)” value is on record as “significantly higher”; the “tissue exposures compared with Luminespib and Ganetespib (in words)” value is “significantly greater”. Also, the “solubility depending on buffer pH (in words)” value in data set [3] (conclusion from Table 5) is “higher solubility in the buffer of pH 3.5-4.5”.
Turning to `CCNC(=O)c1noc(-c2cc(C(C)C)c(O)cc2O)c1-c1ccc(CN2CCOCC2)cc1` [Luminespib, 5[2,4dihydroxy-5-isopropylphenyl]-N-ethyl-4[4-(4-morpholinylmethyl)phenyl]-3-isoxazolecarboxamide, reference compound], the Lung exposure in data set [5] (SD rats, 1 mg/kg iv) amounted to 5.284 µM·h.
For the molecule `CCNC(=O)c1onc(-c2cc(C(C)C)c(O)cc2O)c1-c1ccc2c(c1)CCNC2.Cl` [hydrochloride, 3-(2,4-dihydroxy-5-isopropylphenyl)-N-ethyl-4-(1,2,3,4tetrahydroisoquinolin-6-yl)isoxazole-5-carboxamide hydrochloride], the solubility in data set [3] (setting [6]) is less than 2000 µg/mL; in data set [3] (setting [7]), 4600 to 5500 µg/mL; in data set [3] (setting [8]) it was 9500 to 14200 µg/mL; in data set [3] (setting [9]), 5800 to 7300 µg/mL; in data set [3] (setting [10]), less than 2000 µg/mL; in data set [3] (setting [11]) it was less than 2000 µg/mL. Also, the results for the solubility in data set [3] (setting [12]) and in data set [3] (water) were less than 2000 µg/mL and 5300 to 6300 µg/mL, respectively. In addition, the “solubility compared with A-type crystal (in words)” value in data set [3] (conclusion from Table 5) is recorded as “significantly higher solubilities than that of the A-type crystal”.
Turning to `O=S(=O)(O)O` [sulfate], the “wet weight gain ΔW %” value in data set [2] is listed as “about 0.081%”.
For the molecule maleate, in data set [2], the “wet weight gain ΔW %” value is “about 0.379%”. The Approximate solubility in data set [3] (0.9% NaCl solution) is less than 2000 µg/mL; in data set [3] (5% glucose solution) it was 2100 to 2300 µg/mL; in data set [3] (pH 3.5 buffer (acetic acid/sodium acetate)) it was 6500 to 7500 µg/mL; in data set [3] (pH 4.5 buffer), 3400 to 3900 µg/mL; in data set [3] (pH 5.5 buffer), less than 2000 µg/mL; in data set [3] (pH 6.8 buffer), less than 2000 µg/mL. For the same molecule, the Approximate solubility in data set [3] (pH 7.5 buffer) was less than 2000 µg/mL; in data set [3] (water), 2200 to 2600 µg/mL.
